Measurements reported in patent publication US5688787A, “Substituted β-lactam compounds useful as hypochlesterolemic agents and processes for the preparation thereof” (priority 1996, dated 1997).
Read-outs that look alike come from different tables or passages of the source.

Experiments:
ACAT = target: T1, ACAT (Rattus norvegicus, UniProt Q7TQM4); assay: ACAT Assay (in vitro); type: biochemical; settings: for inhibition at 10 µM: Conc. 10 µM
T1 construct: Rat liver microsomes are used as the source of ACAT; from tissue; host or cells: rat liver microsomes
T1 sequence (Q7TQM4 1-524): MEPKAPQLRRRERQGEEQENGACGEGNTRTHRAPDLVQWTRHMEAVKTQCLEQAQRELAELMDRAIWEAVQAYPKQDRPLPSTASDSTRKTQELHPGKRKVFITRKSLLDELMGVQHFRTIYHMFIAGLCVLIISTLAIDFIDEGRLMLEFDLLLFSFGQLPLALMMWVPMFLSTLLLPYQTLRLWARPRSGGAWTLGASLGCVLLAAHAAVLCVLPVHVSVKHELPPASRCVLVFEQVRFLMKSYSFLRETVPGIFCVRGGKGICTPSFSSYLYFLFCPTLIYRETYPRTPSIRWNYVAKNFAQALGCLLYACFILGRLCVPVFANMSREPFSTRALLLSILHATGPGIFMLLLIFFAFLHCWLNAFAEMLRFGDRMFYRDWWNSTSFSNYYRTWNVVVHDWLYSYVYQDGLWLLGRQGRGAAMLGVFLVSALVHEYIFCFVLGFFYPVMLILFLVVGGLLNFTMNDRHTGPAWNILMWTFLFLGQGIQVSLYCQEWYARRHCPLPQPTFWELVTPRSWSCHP

Hyperlipidemic Hamster = assay: In Vivo Assay of Hypolipidemic Agents Using the Hyperlipidemic Hamster; settings: Mesocricetus auratus, po, 168 h, 7 days, percent change versus control, negative = lowering; for change in vivo at 50 mg/kg: 50 mg/kg once daily oral; for change in vivo at 100 mg/kg: 100 mg/kg once daily oral
Outline: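 Test compound in corn oil was given orally once daily for seven days, starting with a 0.5% cholesterol diet, to groups of six hamsters; corn oil alone served as control. Plasma and hepatic lipids were analysed after decapitation. Results are expressed as percent change relative to control.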

[1] = negative = apparent stimulation, read-out: ACAT (in vitro) % Inhib.
[2] = read-out: % Reduction (in vivo) Cholest. Esters
[3] = read-out: % Reduction (in vivo) Serum Cholest.

| SMILES | inhibition at 10 µM (ACAT; [1]) [%] | inhibition at 25 µM (ACAT; Conc. 25 µM, negative = apparent stimulation, read-out: ACAT (in vitro) % Inhib.) [%] | change in vivo at 50 mg/kg (Hyperlipidemic Hamster; [2]) [%] | change in vivo at 50 mg/kg (Hyperlipidemic Hamster; [3]) [%] | change in vivo at 100 mg/kg (Hyperlipidemic Hamster; [2]) [%] | change in vivo at 100 mg/kg (Hyperlipidemic Hamster; [3]) [%] | IC50 (ACAT) [µM] |
| --- | --- | --- | --- | --- | --- | --- | --- |
| COc1ccc(N2C(=O)[C@H](CCCc3ccccc3)[C@H]2c2ccncc2)cc1 (relative stereo) [Example 1AR] | -41 |  | -25 | -22 |  |  |  |
| COc1ccc(N2C(=O)[C@@H](CCc3ccccc3)[C@H]2c2ccccc2)cc1 (relative stereo) [Example 1D] | 39 |  | 0 | 0 |  |  |  |
| COc1ccc(N2C(=O)[C@@H](CCCc3ccccc3)[C@@H]2c2ccc([N+](=O)[O-])cc2)cc1 (relative stereo) [Example 1G] | 21 |  | 0 | -11 |  |  |  |
| COc1ccc(N2C(=O)[C@H](CCCc3ccccc3)[C@@H]2c2ccccc2)cc1 (relative stereo) [Example 1B] | 28 |  | 0 | 0 |  |  |  |
| COc1ccc(N2C(=O)[C@](C(=O)Cc3ccccc3)(c3ccccc3)[C@@H]2c2ccccc2)cc1 (relative stereo) [Example 1A] |  | 83 |  |  | -26 | -10 |  |
| CC[C@@H]1C(=O)N(c2ccc(OC)cc2)[C@H]1C=Cc1ccccc1 (relative stereo) [Example 1AG] | -3 |  | -29 | -16 |  |  |  |
| COc1ccc(N2C(=O)[C@@H](CCCc3ccccc3)[C@@H]2c2ccc(CO)cc2)cc1 (relative stereo) [Example 15] | -6 |  | -46 | -21 |  |  |  |
| COc1ccc(N2C(=O)[C@H](CCCc3ccccc3)[C@H]2c2ccoc2)cc1 (relative stereo) [Example 1BF] | -17 |  | -23 | 0 |  |  |  |
| COc1ccc([C@H]2[C@@H](CCCC3CCCCC3)C(=O)N2c2ccc(OC)cc2)cc1 (relative stereo) [Example 1CF] | 53 |  | -47 | -23 |  |  |  |
| COc1ccc(N2C(=O)[C@H](CCCc3ccccc3)[C@@H]2c2ccc(C(F)(F)F)cc2)cc1 (relative stereo) [Example 1BH] | 50 |  | 0 | 0 |  |  |  |
| COc1ccc(N2C(=O)[C@H](CCCc3ccccc3)[C@@H]2c2ccc(CO[Si](C)(C)C(C)(C)C)cc2)cc1 (relative stereo) [Example 1AT] | 70 |  | -28 | 0 |  |  | 5 |
| COc1cc(OC)c(N2C(=O)C(CCCc3ccccc3)C2c2ccccc2)c(OC)c1 (stereo not shown) [Example 1F] | 61 |  | 20 | 0 |  |  |  |

Further lines, with some results ahead:

| inhibition at 10 µM (ACAT; [1]) [%] | inhibition at 25 µM (ACAT; Conc. 25 µM, negative = apparent stimulation, read-out: ACAT (in vitro) % Inhib.) [%] | SMILES | change in vivo at 50 mg/kg (Hyperlipidemic Hamster; [2]) [%] | change in vivo at 50 mg/kg (Hyperlipidemic Hamster; [3]) [%] | change in vivo at 100 mg/kg (Hyperlipidemic Hamster; [2]) [%] | change in vivo at 100 mg/kg (Hyperlipidemic Hamster; [3]) [%] | IC50 (ACAT) [µM] |
| --- | --- | --- | --- | --- | --- | --- | --- |
| 43 |  | COc1ccc(N2C(=O)[C@](C)(CCc3ccccc3)[C@@H]2c2ccccc2)cc1 (relative stereo) [Example 3I] | 0 | -9 |  |  |  |
| -23 |  | COc1ccc([C@@H]2[C@@H](N(C)CCc3ccccc3)C(=O)N2c2ccccc2)cc1 (relative stereo) [Example 5N] | -55 | -17 |  |  |  |
| 18 |  | COc1ccc(N2C(=O)[C@H](CCCc3ccccc3)[C@H]2c2ccc(C)cc2)cc1 (relative stereo) [Example 5R] | -21 | -20 |  |  |  |
| -37 |  | COc1ccc([C@@H]2[C@@H](CCCc3ccccc3)C(=O)N2c2ccc(O)cc2)cc1 (relative stereo) [Example 10A] | -58 | -19 |  |  |  |
| 28 |  | CCOc1ccc([C@@H]2[C@@H](CCCc3ccccc3)C(=O)N2c2ccc(OC)cc2)cc1 (relative stereo) [Example 5S] | -98 | -52 |  |  |  |
| -95 |  | COc1ccc([C@@H]2[C@H](OCCc3ccccc3)C(=O)N2c2ccc(OC)cc2)cc1 (relative stereo) [Example 7AE] | -10 | -17 |  |  |  |
| 46 |  | CCCCCCCCCC[C@]1(CCCc2ccccc2)C(=O)N(c2ccc(OC)cc2)[C@@H]1c1ccccc1 (relative stereo) [Example 3U] | 0 | 0 |  |  |  |
